Assays:
[1] = test system: Cyphoma digestive gland cytosolic GST; test: Inhibition of CDNB-conjugating GST activity in digestive gland cytosol; assay type: biochemical, Cyphoma gibbosum; settings: prostaglandins screened at 600 µM, 5% (v/v) DMSO, Figure 3
[2] = test system: human mu-class GST M1a-a; set-up: method as in PMID 9084911; settings: conversion to glutathione conjugate; read-out: Km for PGA2; cited from earlier work
[3] = test system: rat alpha-class GST A4-4; set-up: method as in PMID 12230403; settings: conversion to glutathione conjugate; read-out: Km for PGA2; cited from earlier work
[4] = test system: human mu-class GST M2-2; set-up: method as in PMID 12230403; settings: conversion to glutathione conjugate; read-out: Km for PGA2; cited from earlier work

Structure (SMILES): CCCCC[C@H](O)/C=C/[C@H]1[C@H](O)CC(=O)[C@@H]1C/C=C\CCCC(=O)OC [15(S)-PGE2-methyl ester]
- inhibition of GST activity in comparison to solvent controls [1]: little to no inhibitory activity

Structure (SMILES): CCCCC[C@H](O)/C=C/[C@@H]1[C@@H](C/C=C\CCCC(=O)OC)[C@@H](O)C[C@H]1O [15(S)-PGF2α-methyl ester]
- inhibition of GST activity in comparison to solvent controls [1]: little to no inhibitory activity

Structure (SMILES): CCCCC[C@H](O)/C=C/[C@H]1C=CC(=O)[C@@H]1C/C=C\CCCC(=O)O [15(S)-PGA2, prostaglandin A2]
- inhibition of GST activity in comparison to solvent controls ([1]; 600 µM): most potent inhibitors
- inhibition of GST activity in comparison to solvent controls ([1]; listed as PGA2, 600 µM): greatest inhibition
- Km [2]: 26 µM
- Km [3]: 12 µM
- Km [4]: 7.6 µM

Structure (SMILES): CCCCC[C@@](C)(O)/C=C/[C@H]1C=CC(=O)[C@@H]1C/C=C\CCCC(=O)O [15(R)-15-methyl PGA2]
- inhibition of GST activity in comparison to solvent controls [1]: most potent inhibitors
